According to ChEMBL document CHEMBL5050844 (2019):

Legend:
Assay type in all cases: functional, T cell line
[1] = Induction of anti-CD3 antibodies-stimulated human T cell activation at 1 uM assessed fold increase in IL-2 secretion measured by ELISA assay; note: reference of the scale not given here
[2] = Induction of anti-CD3 antibodies-stimulated human T cell activation at 8 uM assessed fold increase in CD25 expression measured by ELISA assay; note: reference of the scale not given here
[3] = Induction of anti-CD3 antibodies-stimulated human T cell activation at 1 uM assessed fold increase in CD25 expression measured by ELISA assay; note: reference of the scale not given here
[4] = Induction of anti-CD3/CD28 antibodies-stimulated human T cell activation at 0.3 uM assessed fold increase in CD25 expression measured by ELISA assay
[5] = Induction of anti-CD3/CD28 antibodies-stimulated human T cell activation at 1 uM assessed fold increase in CD25 expression measured by ELISA assay
[6] = Induction of anti-CD3/CD28 antibodies-stimulated human T cell activation at 4 uM assessed fold increase in IL-2 secretion measured by ELISA assay
[7] = Induction of anti-CD3/CD28 antibodies-stimulated human T cell activation at 4 uM assessed fold increase in CD25 expression measured by ELISA assay
[8] = Induction of anti-CD3/CD28 antibodies-stimulated human T cell activation at 1 uM assessed fold increase in IL-2 secretion measured by ELISA assay
[9] = Induction of anti-CD3/CD28 antibodies-stimulated human T cell activation at 0.3 uM assessed fold increase in IL-2 secretion measured by ELISA assay
[10] = Induction of anti-CD3 antibodies-stimulated human T cell activation at 8 uM assessed fold increase in IL-2 secretion measured by ELISA assay; note: reference of the scale not given here

| SMILES | fold change (FC) [1] | fold change (FC) [2] | fold change (FC) [3] | fold change (FC) [4] | fold change (FC) [5] | fold change (FC) [6] | fold change (FC) [7] | fold change (FC) [8] | fold change (FC) [9] | fold change (FC) [10] |
| --- | --- | --- | --- | --- | --- | --- | --- | --- | --- | --- |
| C[C@H](Sc1nncn1C)c1cccc(NC(=O)c2cccc(C(C)(F)F)n2)c1 | <=0.05 | >=1.001 | 0.801 | 1.01 | 1.51 | 2.51 | >=1.76 | <=1 | <=1 | 0.151 |
| C[C@H](Cc1nncn1C)c1cc(NC2CCOC2)nc(N2Cc3c(cccc3C(F)(F)F)C2=O)c1 (single isomer, unassigned) | 0.051 | 0.801 | 0.601 | <=1 | 1.01 | 1.01 | 1.01 | 1.01 | 1.01 | 0.151 |
| C[C@H](Cc1nncn1C)c1ccnc(N2Cc3c(cccc3C(F)(F)F)C2=O)c1 | <=0.05 | <=0.6 | <=0.6 | 1.01 | 1.01 | 1.01 | 1.31 | <=1 | <=1 | <=0.05 |
| C[C@H](Sc1nnc[nH]1)c1cccc(NC(=O)c2cc3ccccc3cn2)c1 | 0.051 | <=0.6 | <=0.6 | <=1 | <=1 | 1.01 | <=1 | 1.01 | 1.01 | 0.051 |
| C[C@H](Cc1nncn1C)c1cccc(NC(=O)c2cncc(C(F)(F)F)n2)c1 | 0.051 | >=1.001 | 0.601 | >=1.76 | >=1.76 | 5 | >=1.76 | 2.51 | 1.01 | 0.051 |
| C[C@H](Sc1nncn1C)c1ccnc(N2Cc3c(cccc3C(F)(F)F)C2=O)c1 | <=0.05 | <=0.6 | <=0.6 | <=1 | <=1 | 2.51 | <=1 | 2.51 | 2.51 | <=0.05 |
| C[C@H](Sc1nncn1C)c1cccc(NC(=O)c2cc(C(F)(F)F)cc(C(F)(F)F)n2)c1 | <=0.05 | 0.601 | <=0.6 | <=1 | <=1 | 1.01 | 1.01 | <=1 | <=1 | <=0.05 |
| C[C@H](Cc1nncn1C)c1cccc(NC(=O)c2cn3ccnc3cn2)c1 | 0.051 | 0.801 | 0.601 | <=1 | 1.01 | 1.01 | 1.01 | 1.01 | 1.01 | 0.101 |
| C[C@H](Cc1nncn1C1CC1)c1cccc(N2Cc3c(cccc3C(F)(F)F)C2=O)c1 | <=0.05 | 0.801 | 0.601 | 1.01 | 1.01 | 1.01 | 1.01 | 1.01 | <=1 | <=0.05 |
| COc1nc(C(=O)Nc2cccc([C@H](C)Sc3nncn3C)c2)cc2ccccc12 | <=0.05 | 0.801 | <=0.6 | <=1 | 1.01 | >=7.5 | 1.01 | 5 | 2.51 | 0.051 |
| C[C@H](Sc1nncn1C)c1cccc(NC(=O)c2cc(C(=O)N3CC(O)C3)ccn2)c1 | <=0.05 | 0.601 | <=0.6 | <=1 | <=1 | <=1 | <=1 | <=1 | <=1 | <=0.05 |
| C[C@H](Sc1nncn1C)c1cccc(N2Cc3c(ccnc3Cl)C2=O)c1 | <=0.05 | 0.601 | <=0.6 | 1.51 | 1.01 | 2.51 | >=1.76 | <=1 | 1.01 | 0.101 |
| Cn1cnnc1C(F)(F)C(C)(F)c1cccc(N2Cc3c(cccc3C(F)(F)F)C2=O)c1 (racemic) | >=0.201 | 0.601 | 0.601 | 1.01 | 1.01 | 1.01 | 1.01 | <=1 | <=1 | >=0.201 |
